From PubChem BioAssay AID1963841 (Molecular Pharmacology Branch, DTP, NCI, 2024)
Where “and” joins values, the source holds several entries; their conditions need not be identical. Equal values may be shown once.

System: 439559-082-T-J2-PDC spheroid viability
Assay: Anticancer human tumor 439559-082-T-J2-PDC patient-derived colon adenocarcinoma cell line growth inhibition [POLQ]
Settings: spheroids with HUVEC and MSC; for viability, T/C: stronger effect = lower value
Procedure: Multicellular complex tumor spheroid response to Polymerase (POL) inhibitors (novobiocin, ART-558, RP6685) in combination with a variety of drugs and investigational agents in selected tumor cell lines
The POL inhibitors (novobiocin, ART-558, and RP6685) were evaluated both individually and in combination with standard of care and investigational anticancer small molecules within a complex spheroid model of solid tumors. . Complex spheroids include a stromal component modeled by human endothelial cells (HUVEC) and fibroblasts modeled by human mesenchymal stem cells (MSCs). The concentration ranges selected for each drug and investigational agent were based upon clinically achievable concentrations if the clinical Cmax of the agent was known.
Compounds. The drugs and investigational agents: novobiocin (NSC847541), ART-558 (NSC835418), RP-6685 (NSC848927), peposertib (NSC802822), ceralasertib (NSC780249), elimusertib (NSC800525), camonsertib (NSC841442), AZD-1390 (NSC803789), olaparib (NSC753686), talazoparib (NSC767125), rucaparib (NSC756644), sotorasib (NSC818433), MRTX-1133 (NSC836407), SN-38 (NSC673596), topotecan (NSC609699), epotoside (NSC141540), doxorubicin (NSC123127), gemcitabine (NSC613327), 5-fluorouracil (NSC19893), paclitaxel (NSC125973), vemurafenib (NSC761431), MSA-2 (NSC828583), SN-011 (NSC837082), adavosertib (NSC754352), prexasertib (NSC758257), carboplatin (NSC241240) and oxaliplatin (NSC266046), were obtained from the National Cancer Institute (NCI) Developmental Therapeutics Program Chemical Repository (21). The FDA-approved anticancer drug set is available from the Developmental Therapeutics Program at https://dtp.cancer.gov/organization/dscb/obtaining/. […] The stock solutions were prepared in dimethyl sulfoxide (DMSO, Sigma-Aldrich, St. Louis, MO, cat. D2650), except for the platinum compounds which were prepared in saline (Quality Biological, Gaithersburg, MD, cat. 114-055-101), at 800-fold the tested concentration and stored at -70 degrees C prior to their use. All drugs and investigational agents were tested over a range starting from a high concentration at or near the clinical Cmax and decreasing in half-log increments. If the clinical Cmax for an agent had not been determined, the highest concentration tested was 10 microM, except for SN-38, which was tested at a high concentration of 1 microM.
Cell Culture. All cells were maintained in an incubator at 37 degrees C and 5% CO2 with 95% humidity. The PDC lines were cultured according to standard operating procedures established by the NCI PDMR (https://pdmr.cancer.gov). Table 3 of the manuscript, lists the cell lines along with the number of the three cell types plated to form the mct-spheroids and media for tumor cell growth. After thawing, all PDC lines, except 997537-175-T-J1-PDC and 415267-285-R-J2-PDC, were cultured in Matrigel-coated flasks prepared with a working solution of 1X Ham's F-12 nutrient mix, without supplementation (Thermo Fisher Scientific, cat. 11765054), 100 U/mL penicillin-streptomycin (Thermo Fisher Scientific, cat. 15140122), and 2.5% Matrigel (Corning Inc., Corning, NY, cat. 354248) for the first three passages. The two PDC lines 997537-175-T-J1-PDC and 415267-285-R-J2-PDC were cultured on uncoated flasks. The 857933-349-R-J2-PDC line was cultured in 6C/Colon 1B media containing advanced DMEM/F-12 (Thermo Fisher Scientific, cat. 12634028), 10 mM HEPES (Thermo Fisher Scientific, cat. 15630080), 1X GlutaMAX supplement (Thermo Fisher Scientific, cat. 35050061), 0.1 mg/mL primocin (InvivoGen, San Diego, CA, cat. ant-pm-2), 10% defined fetal bovine serum, heat inactivated (HyClone Laboratories Inc., Logan, UT, cat. SH30070.03HI), 50% L-WRN conditioned media (ATCC, cat. CRL-3276), 1.25 mM N-Acetyl-L-cysteine (Sigma-Aldrich, cat. A9165), 10 mM nicotinamide (Sigma-Aldrich, cat. N0636), 1X B-27 supplement (Thermo Fisher Scientific, cat. 17504044), 1X N-2 supplement (Thermo Fisher Scientific, cat. […]
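Further: spheroids exposed to compounds for seven days before readout.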
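Wherever viability, T/C is given: 100% = DMSO vehicle control viability.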

Row | IC50 (compound alone, run of 12/05/2023) [µM] | Structure (SMILES) | viability, T/C (compound 0.0316 µM) | viability, T/C (compound 0.1 µM) | viability, T/C (compound 0.316 µM) | viability, T/C (compound 1 µM) | viability, T/C (compound 3.16 µM) | viability, T/C (compound 10 µM) | IC50 (curve of compound) [µM]
1 | > 10 | Nc1ccc(C#CCN(C(=O)Cc2ncc(C(F)(F)F)cc2C(F)(F)F)c2ccc(F)cc2)nn1 | 96.1% [middle of 13 runs] | 97.8% [middle of 13 runs] | 96% [middle of 13 runs] | 100% [middle of 13 runs] | 99.5% [middle of 13 runs] |  | 
2 |  | COc1cc2cc(C(=O)CCC(=O)O)sc2cc1OC | 109% and 97.5% and 94.4% | 93.8% and 82% and 103% | 89.1% and 98.4% and 98.9% | 95.2% and 100% and 99.7% | 95.2% and 91.9% and 97% | 87.7% and 100% (2×) | > 10
3 |  | CCc1cc2c(N3CCc4c(cc(Cn5ccnc5)cc4-c4cn(C)nc4C(F)(F)F)C3=O)ccnc2c(OC)n1 | 96.6% and 87.7% and 94.8% | 100% and 94.5% and 93.2% | 102% and 101% and 87.4% | 101% and 95% and 96% | 107% and 95% and 90.8% | 94.8% and 89.2% and 94.2% | > 10
